Experimental data reported in patent US20120213727A1, “THERAPEUTIC USES OF OLIGOMERIC AND POLYMERIC MONOTERPENES” (REGENERA PHARMA LTD., priority 2009, published 2012).

Tested on: ARPE-19 cells
Test: Neuronal-like differentiation in ARPE-19 retinal pigment epithelial cell cultures
Format: cell-based, human
Details: 72 hrs incubation, optical microscope
Method: ARPE-19 cells (obtained from the American Type Culture Collection, ATCC) were plated in flat bottom 96 well tissue culture microplates (Costar) at a concentration of 2-5×10^3 cells per well (1-2.5×10^4 cells/mL) in a growth medium consisting of DMEM:Ham F-12, 1:1, supplemented with 10% Fetal Bovine Serum, […] glutamine, 100 units/mL penicillin and 100 μg/mL streptomycin. The cells were allowed to adhere to the plate surfaces overnight prior to treatment with polymeric monoterpene.
Each type of polymeric monoterpene was synthesized to provide a 10% solution in grape seed oil, olive oil, Mygliol 810 or Mygliol 812. The preparations were added to the cultures at volumes of 0.5 μl, 2 μl, 5 μl and 20 μl. […]
The cultures were incubated in a 37° C., 5% CO2 incubator for 72 hrs. The medium was then removed, the cultures washed twice with phosphate buffered saline (PBS), fixed with absolute methanol for 10 min and stained with Hemacolor® reagents (Boehringer Mannheim), which stain cells in a manner similar to Giemsa, and may be used in a quantitative cell viability assay (see Keisari, Y. A colorimetric microtiter assay for the quantitation of cytokine activity on adherent cells in tissue culture. J. Immunol. Methods 146, 155-161, 1992). The degree of differentiation was determined by optical microscope. […]

CC=C(C)C=CC=C(C)C [monomeric alloocimene, 2,6-dimethyl-2,4,6-octatriene]
induction of neuronal differentiation (morphology): showed no such effects | induction of neuronal differentiation (morphology) (listed as monomeric allocimene): has no influence on the cells
